Reference: ChEMBL document CHEMBL1201862, “PubChem BioAssay data set” (2004)
Where “and” joins values, the source holds several entries; their conditions need not be identical. Equal entries are not always repeated.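 Interpolation was linear, between the two tested concentrations surrounding the appropriate level; five concentrations were tested over 48 hours in 96-well plates. Here, GI50 denotes the concentration required for 50% inhibition of growth.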 Calls of active or inactive are those of the source. No stated cut-off is given here; in the data, active = GI50 up to about 1.1 µM and inactive = higher.

Experiments:
Assay in all cases: NCI anticancer screen, dose series, 48 h
SK-MEL-5 = tested on: SK-MEL-5
CAKI-1 = tested on: CAKI-1
OVCAR-5 = tested on: OVCAR-5
Malme-3M = tested on: Malme-3M
M14 = tested on: M14
SR = tested on: SR
SK-MEL-2 = tested on: SK-MEL-2
U-251 = tested on: U-251
RXF 393 = tested on: RXF 393
OVCAR-8 = tested on: OVCAR-8
SK-OV-3 = tested on: SK-OV-3
NCI-H226 = tested on: NCI-H226
OVCAR-3 = tested on: OVCAR-3
HOP-92 = tested on: HOP-92
UACC-62 = tested on: UACC-62
A549 = tested on: A549
HOP-62 = tested on: HOP-62
K562 = tested on: K562
KM12 = tested on: KM12
EKVX = tested on: EKVX
CCRF-CEM = tested on: CCRF-CEM
NCI-H460 = tested on: NCI-H460
NCI-H23 = tested on: NCI-H23
NCI/ADR-RES = tested on: NCI/ADR-RES
HCC 2998 = tested on: HCC 2998
SNB-75 = tested on: SNB-75
UO-31 = tested on: UO-31
HCT-15 = tested on: HCT-15
BT-549 = tested on: BT-549
SK-MEL-28 = tested on: SK-MEL-28
SW-620 = tested on: SW-620
MOLT-4 = tested on: MOLT-4
SNB-19 = tested on: SNB-19
SN12C = tested on: SN12C
NCI-H522 = tested on: NCI-H522
LOX IMVI = tested on: LOX IMVI
MDA-MB-435 = tested on: MDA-MB-435
HCT-116 = tested on: HCT-116
SF-295 = tested on: SF-295
COLO 205 = tested on: COLO 205
HT-29 = tested on: HT-29
IGROV-1 = tested on: IGROV-1
Hs-578T = tested on: Hs-578T
SF-268 = tested on: SF-268
MDA-N = tested on: MDA-N
TK-10 = tested on: TK-10
786-0 = tested on: 786-0
ACHN = tested on: ACHN
UACC-257 = tested on: UACC-257
DU-145 = tested on: DU-145
PC-3 = tested on: PC-3
A498 = tested on: A498
MCF7 = tested on: MCF7
OVCAR-4 = tested on: OVCAR-4
MDA-MB-231 = tested on: MDA-MB-231
HL-60 = tested on: HL-60
RPMI-8226 = tested on: RPMI-8226
SF-539 = tested on: SF-539
T47D = tested on: T47D

For `C[C@H](N)C(=O)Nc1ccc(-c2nc3ccccc3s2)cc1Cl`, the GI50 (SK-MEL-5) was 16.1 µM (inactive), the GI50 (CAKI-1) was 10.7 µM (inactive) and the GI50 (OVCAR-5) was 0.27 µM (active). The GI50 (Malme-3M) was 22.1 µM (inactive), the GI50 (M14) was 5.78 µM (inactive) and the GI50 (SR) was 3.8 µM (inactive). The GI50 (SK-MEL-2) was 15.7 µM (inactive), the GI50 (U-251) was 14.6 µM (inactive) and the GI50 (RXF 393) was 15.1 µM (inactive). For the same molecule, the GI50 (OVCAR-8) was 26 µM (inactive), the GI50 (SK-OV-3) was 16.4 µM (inactive) and the GI50 (NCI-H226) was 0.0745 µM (active). The GI50 (OVCAR-3) was 0.153 µM (active), the GI50 (HOP-92) was 33.1 µM (inactive) and the GI50 (UACC-62) was 16.4 µM (inactive). The GI50 (A549) was 13.3 µM (inactive), the GI50 (HOP-62) was 12.3 µM (inactive) and the GI50 (K562) was 17.1 µM (inactive). For the same molecule, the GI50 (KM12) was 15 µM (inactive), the GI50 (EKVX) was 11.9 µM (inactive) and the GI50 (CCRF-CEM) was 12 µM (inactive). The GI50 (NCI-H460) was 0.916 µM (active), the GI50 (NCI-H23) was 16.5 µM (inactive) and the GI50 (NCI/ADR-RES) was 30.8 µM (inactive). The GI50 (HCC 2998) was 0.56 µM (active), the GI50 (SNB-75) was 16 µM (inactive) and the GI50 (UO-31) was 10.7 µM (inactive). The GI50 (HCT-15) was 19.6 µM, the GI50 (BT-549) was 16.3 µM (inactive) and the GI50 (SK-MEL-28) was 14 µM (inactive). The GI50 (SW-620) was 15.2 µM (inactive), the GI50 (MOLT-4) was 17.7 µM (inactive) and the GI50 (SNB-19) was 16.3 µM (inactive). The GI50 (SN12C) was 15.9 µM (inactive), the GI50 (NCI-H522) was 20.5 µM (inactive) and the GI50 (LOX IMVI) was 7.82 µM (inactive). For the same molecule, the GI50 (MDA-MB-435) was 13.6 µM (inactive), the GI50 (HCT-116) was 11.6 µM (inactive) and the GI50 (SF-295) was 16.6 µM (inactive). The GI50 (COLO 205) was 12.5 µM (inactive), the GI50 (HT-29) was 16.7 µM (inactive) and the GI50 (IGROV-1) was 0.165 µM (active). For the same molecule, the GI50 (Hs-578T) was 20.1 µM (inactive), the GI50 (SF-268) was 17.9 µM (inactive) and the GI50 (MDA-N) was 13.2 µM (inactive). The GI50 (TK-10) was 0.161 µM (active), the GI50 (786-0) was 12.5 µM (inactive) and the GI50 (ACHN) was 15.4 µM (inactive). For the same molecule, the GI50 (UACC-257) was 18.6 µM (inactive), the GI50 (DU-145) was 16.6 µM (inactive) and the GI50 (PC-3) was 13.8 µM (inactive).
For `CC(C)=CCCC1(C)C2COC(=O)C21` (centres undefined), the GI50 (OVCAR-5) was > 100 µM (inactive), the GI50 (Malme-3M) was > 100 µM (inactive) and the GI50 (SK-MEL-2) was > 100 µM (inactive). For the same molecule, the GI50 (RXF 393) was > 100 µM (inactive), the GI50 (SK-OV-3) was > 100 µM (inactive) and the GI50 (UACC-62) was > 100 µM (inactive). For the same molecule, the GI50 (A498) was > 100 µM (inactive), the GI50 (EKVX) was 67.5 µM (inactive) and the GI50 (MCF7) was 31.3 µM (inactive) and 33.9 µM (inactive). The GI50 (HCC 2998) was > 100 µM (inactive), the GI50 (UO-31) was > 100 µM (inactive) and the GI50 (BT-549) was > 100 µM (inactive). For the same molecule, the GI50 (SK-MEL-28) was > 100 µM (inactive), the GI50 (SW-620) was 64.7 µM (inactive) and the GI50 (SNB-19) was > 100 µM (inactive). The GI50 (SF-295) was > 100 µM (inactive) and 63.2 µM (inactive), the GI50 (OVCAR-4) was > 100 µM (inactive) and 80 µM (inactive) and the GI50 (MDA-MB-231) was > 100 µM (inactive). The GI50 (HT-29) was > 100 µM (inactive), the GI50 (IGROV-1) was 53.7 µM (inactive) and the GI50 (SF-268) was > 100 µM (inactive). For the same molecule, the GI50 (TK-10) was > 100 µM (inactive), the GI50 (786-0) was > 100 µM (inactive) and 63.2 µM (inactive) and the GI50 (ACHN) was > 100 µM (inactive) and 68.9 µM (inactive). The GI50 (UACC-257) was > 100 µM (inactive), the GI50 (DU-145) was > 100 µM (inactive) and the GI50 (PC-3) was > 100 µM (inactive).
For `OCC1NC(CO)C(O)C1O` (centres undefined), the GI50 (OVCAR-5) was > 100 µM (inactive), the GI50 (HL-60) was > 100 µM (inactive) and the GI50 (SR) was > 100 µM (inactive). The GI50 (SK-MEL-2) was > 100 µM (inactive), the GI50 (U-251) was > 100 µM (inactive) and the GI50 (RXF 393) was > 100 µM (inactive). For the same molecule, the GI50 (OVCAR-3) was > 100 µM (inactive), the GI50 (HOP-62) was > 100 µM (inactive) and the GI50 (CCRF-CEM) was > 100 µM (inactive). For the same molecule, the GI50 (RPMI-8226) was > 100 µM (inactive), the GI50 (BT-549) was > 100 µM (inactive) and the GI50 (SW-620) was > 100 µM (inactive). The GI50 (SNB-19) was > 100 µM (inactive), the GI50 (SN12C) was > 10 µM (inactive) and the GI50 (OVCAR-4) was > 100 µM (inactive). For the same molecule, the GI50 (Hs-578T) was > 100 µM (inactive), the GI50 (MDA-N) was > 100 µM (inactive) and the GI50 (UACC-257) was > 100 µM (inactive). The GI50 (PC-3) was > 100 µM (inactive).
For `COc1cc(/C=c2/c3ccccc3n3c2cc(-c2ccccc2)[n+]3C)cc(OC)c1OC`, the GI50 (SK-MEL-5) was 2.69 µM (inactive), the GI50 (CAKI-1) was 3.92 µM (inactive) and the GI50 (OVCAR-5) was 4.85 µM (inactive). The GI50 (HL-60) was 2.39 µM (inactive), the GI50 (Malme-3M) was 2.19 µM (inactive) and the GI50 (M14) was 4.95 µM (inactive). The GI50 (SK-MEL-2) was 2.58 µM (inactive), the GI50 (U-251) was 3.7 µM (inactive) and the GI50 (RXF 393) was 2.74 µM (inactive). The GI50 (OVCAR-8) was 3.33 µM (inactive), the GI50 (SK-OV-3) was 5.92 µM (inactive) and the GI50 (NCI-H226) was 7.94 µM (inactive). The GI50 (OVCAR-3) was 2.43 µM (inactive), the GI50 (HOP-92) was 3.48 µM (inactive) and the GI50 (UACC-62) was 3.69 µM (inactive). For the same molecule, the GI50 (SF-539) was 2.86 µM (inactive), the GI50 (A549) was 4.18 µM (inactive) and the GI50 (HOP-62) was 5.47 µM (inactive). For the same molecule, the GI50 (K562) was 2.74 µM (inactive), the GI50 (A498) was 16 µM (inactive) and the GI50 (KM12) was 1.91 µM (inactive). For the same molecule, the GI50 (EKVX) was 5.15 µM (inactive), the GI50 (CCRF-CEM) was 3.52 µM (inactive) and the GI50 (NCI-H460) was 4.58 µM (inactive). The GI50 (NCI-H23) was 3.94 µM (inactive), the GI50 (MCF7) was 4.54 µM (inactive) and the GI50 (NCI/ADR-RES) was > 100 µM (inactive). The GI50 (HCC 2998) was 6.22 µM (inactive), the GI50 (RPMI-8226) was 2.55 µM (inactive) and the GI50 (SNB-75) was 4.01 µM (inactive). For the same molecule, the GI50 (UO-31) was 5.12 µM (inactive), the GI50 (HCT-15) was 4.39 µM and the GI50 (BT-549) was 3.78 µM (inactive). For the same molecule, the GI50 (SK-MEL-28) was 5.78 µM (inactive), the GI50 (SW-620) was 3.82 µM (inactive) and the GI50 (T47D) was 4.06 µM (inactive). The GI50 (MOLT-4) was 2.97 µM (inactive), the GI50 (SNB-19) was 5.48 µM (inactive) and the GI50 (SN12C) was 2.82 µM (inactive). The GI50 (NCI-H522) was 2.93 µM (inactive), the GI50 (LOX IMVI) was 3.69 µM (inactive) and the GI50 (MDA-MB-435) was 2.51 µM (inactive). The GI50 (HCT-116) was 2.62 µM (inactive), the GI50 (SF-295) was 5.64 µM (inactive) and the GI50 (OVCAR-4) was 3.46 µM (inactive). The GI50 (COLO 205) was 1.69 µM (inactive), the GI50 (MDA-MB-231) was 4.06 µM (inactive) and the GI50 (HT-29) was 3.07 µM (inactive). For the same molecule, the GI50 (IGROV-1) was 6.19 µM (inactive), the GI50 (SF-268) was 6.73 µM (inactive) and the GI50 (MDA-N) was 4.04 µM (inactive). The GI50 (TK-10) was 5.33 µM (inactive), the GI50 (786-0) was 4.06 µM (inactive) and the GI50 (ACHN) was 4.07 µM (inactive). For the same molecule, the GI50 (UACC-257) was 2.44 µM (inactive), the GI50 (DU-145) was 5.47 µM (inactive) and the GI50 (PC-3) was 3.74 µM (inactive).
